Measured values from publication PMC11939470, “The Cyclic Antimicrobial Peptide C-LR18 Has Enhanced Antibacterial Activity, Improved Stability, and a Longer Half-Life Compared to the Original Peptide” (Antibiotics, 2025).
Where a SMILES comes first, the peptide text is derived from it. Bridges are numbered along the chain shown (N, C = ends).

Columns and labels:
rabbit red blood cells = assay: Hemolysis activity determination; format: cell-based; conditions: 2% rabbit red blood cells in PBS pH 7.4, 37 °C 1 h, OD 570 nm, repeated three times
Method: Briefly, the collected rabbit red blood cells [purchased from Oumarsi (Shanghai, China) Biotechnology Co., Ltd.] were washed three times with PBS (pH 7.4) and diluted to 2% (v/v). A total of 100 µL of rabbit red blood cells suspension were mixed with 100 µL of PBS (pH 7.4) containing different concentrations of peptides (1–256 µM) in a 96-well plate. The positive control was a mixture of 100 µL of red blood cell suspension and 100 µL of 0.2% TritonX-100 solution, and the negative control was a mixture of 100 µL of red blood cell suspension and 100 µL of PBS solution. The mixtures were incubated at 37 °C for 1 h, then centrifuged at 1000× g for 10 min. The OD value at 570 nm of the supernatant was measured using a microplate reader (TECAN GENios F129004, Tecan, Salzburg, Austria). The hemolytic index was calculated according to the following formula:Hemolytic index % = (OD peptide − ODPBS)/(ODT ritonX-100 − ODPBS) × 100%(2)
The concentration of the antimicrobial peptide causing 10% erythrocyte hemolysis was defined as the minimum hemolytic concentration of the antimicrobial peptide on rabbit red blood cells. The experiment was repeated three times.

E. coli ATCC25922 = assay: Bactericidal kinetics assay; format: cell-based; conditions: 1 × MIC and 2 × MIC, 1 × 10^6 CFU/mL, 37 °C, dose-dependent, Figure 1f
Method: Bactericidal kinetics assay was performed according to the method outlined by Zhang et al.. […] The mixed solutions were incubated in a shaker at 37 °C. A total of 100 μL of the above mixed solution was absorbed every 20 min and diluted with sterile MH liquid medium, and then 50 μL of bacterial solution was aspirated and evenly coated on the solid MH plate. After incubation at 37 °C for 16–18 h, the bacteria colonies on the plate were counted. The bactericidal kinetics curves of LR18 and C-LR18 against E. coli ATCC25922 were plotted. The experiment was repeated three times.

[1] = Half-life and pharmacokinetics in SD rats after caudal vein administration (HPLC); format: in vivo
Method: Half-life of peptides in SD rats was determined via HPLC according to the method described in [31]. The SD rats were maintained at constant room temperature [(25 ± 2) °C] with free access to food and water for 48 h. Each SD rat was weighed to an accuracy of 0.10 g, numbered, and grouped randomly, with 6 rats in each group. LR18 and C-LR18 were injected into SD rats via tail vein at a dose of 5 mg/kg body weight. A total of 200 μL of blood was collected from the orbital venous plexus at different time points of 0, 0.5, 0.8, 1.0, 1.5, 2.5, 3.5, 5, 10, 30, and 60 min, and placed into a centrifuge tube containing 0.5% heparin sodium. After centrifugation at 3000 r/min for 15 min, the supernatant was absorbed into a new centrifuge tube, and then acetonitrile containing 0.1% TFA was added at 1/1 volume. Vortexing for 30 s, the samples were centrifuged at 14,000 r/min for 20 min, the supernatant was aspirated and sterilized using a 0.22 μm sterilization filter, and 30 μL of the sample was used for HPLC determination. The pharmacokinetic parameters were calculated using Phoenix Winnonlin 7.0 software and analyzed with non-atrioventricular model. Drug–time curves were plotted using Graphpad Prim, and Mean ± SD was used to interpolate each point during drug–time curve fitting.

## CC(C)C[C@@H]1NC(=O)[C@H](CCCNC(=N)N)NC(=O)[C@H](CCCNC(=N)N)NC(=O)[C@H](CC(C)C)NC(=O)[C@H](CC(C)C)NC(=O)[C@H](CCCNC(=N)N)NC(=O)[C@H](CC(C)C)NC(=O)[C@@H]2CCCN2C(=O)[C@H](CCCNC(=N)N)NC(=O)[C@H](CCCNC(=N)N)NC(=O)[C@@H]2CCCN2C(=O)[C@H](CC(C)C)NC(=O)[C@H](CCCNC(=N)N)NC(=O)[C@H](CC(C)C)NC(=O)[C@H](CC(C)C)NC(=O)[C@H](CCCNC(=N)N)NC(=O)[C@H](CCCNC(=N)N)NC(=O)[C@H](CC(C)C)NC(=O)[C@@H](N)CSSC[C@@H](C(=O)O)NC1=O [C-LR18] (H-CLRRLLRLPRRPLRLLRRLC-OH; disulfide 1-20; N-terminus and C-terminus assumed)
Rabbit red blood cells
  MHC10 (lowest concentration inducing 10% hemolysis): 128 µM
E. coli ATCC25922
  time to complete killing of E. coli ATCC25922: ≤ 100 min
[1]; SD rats iv
  half-life in rats relative to LR18: 4.66 times
  prolongation of half-life in rats versus LR18: 10 min
[1]; SD rats, tail vein, 5 mg/kg, HPLC, n = 3
  Cmax: 254.23 ± 6.30 µg/mL
[1]; SD rats, tail vein, 5 mg/kg, non-compartmental, HPLC, n = 3 (method: 6 rats per group)
  AUC0-t: 3376.13 ± 37.72 µg·min/mL
[1]; rat, plasma, iv, SD rats, tail vein, 5 mg/kg, HPLC, n = 3, read-out: MRT0-t (converted)
  MRT: 13.5 min
[1]; rat, plasma, iv, SD rats, tail vein, 5 mg/kg, HPLC, n = 3, read-out: T1/2β (terminal elimination half-life)
  half-life: 12.7 ± 0.79 min
